Laboratory results from PubChem BioAssay (NCI).
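Dose response: 5 concentrations. Exposure: 48 h. Format: 96-well plates. Endpoint: linear interpolation; highest concentration if not reached. Abbreviation: GI50, concentration required for 50% inhibition of growth. The concentration for full growth arrest is given as TGI.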

How the values were obtained:
Test in all cases: inhibition of tumour cell growth, NCI panel, 48 h
786-0 renal = system: 786-0 renal
HCT-116 colon = system: HCT-116 colon
HCT-15 colon = system: HCT-15 colon
MCF7 breast = system: MCF7 breast
NCI-H226 lung = system: NCI-H226 lung
OVCAR-4 ovarian = system: OVCAR-4 ovarian
OVCAR-5 ovarian = system: OVCAR-5 ovarian
OVCAR-8 ovarian = system: OVCAR-8 ovarian
SF-295 CNS = system: SF-295 CNS
SK-MEL-5 melanoma = system: SK-MEL-5 melanoma

Structure (SMILES) | GI50 (786-0 renal) [µM] | TGI (786-0 renal) [µM] | GI50 (HCT-116 colon) [µM] | TGI (HCT-116 colon) [µM] | GI50 (HCT-15 colon) [µM] | TGI (HCT-15 colon) [µM] | GI50 (MCF7 breast) [µM] | TGI (MCF7 breast) [µM] | GI50 (NCI-H226 lung) [µM] | TGI (NCI-H226 lung) [µM] | GI50 (OVCAR-4 ovarian) [µM] | TGI (OVCAR-4 ovarian) [µM] | GI50 (OVCAR-5 ovarian) [µM] | TGI (OVCAR-5 ovarian) [µM] | GI50 (OVCAR-8 ovarian) [µM] | TGI (OVCAR-8 ovarian) [µM] | GI50 (SF-295 CNS) [µM] | TGI (SF-295 CNS) [µM] | GI50 (SK-MEL-5 melanoma) [µM] | TGI (SK-MEL-5 melanoma) [µM]
COc1ccc(-c2c[nH]c(C(=O)O)c2-c2cc(OC)c(OC)c(OC)c2)cc1 | 6.63 | > 100 | 5.02 | > 100 | 3.66 | > 100 | 3.89 | > 100 | 4.59 | > 100 | 88.8 | > 100 | 9.98 | > 100 | 5.44 | > 100 | 4.19 | > 100 | 3.5 | > 100
COc1c(C)c2c(c(O)c1C/C=C(\C)CCC(=O)O)C(=O)OC2 | 0.326 | > 100 | 0.145 | > 100 | 0.15 | > 100 | 0.18 | > 100 | 2.58 | > 100 | 0.776 | > 100 | 1.79 | > 100 | 0.443 | > 100 | 0.278 | > 100 | 0.411 | > 100
C=C(C)C(=O)O[C@H]1CC(=C)[C@@H]2C[C@H](O)[C@](O)(CCl)[C@@H]2[C@H]2OC(=O)C(=C)[C@@H]21 | 1.93 | 3.88 | 1.67 | 3.19 | 1.89 | 4.42 | 1.6 | 4.04 | 19.6 | 46.2 | 2.08 | 4.01 | 14.8 | 29.6 | 3.24 | 12.8 | 12.3 | 26.4 | 8.66 | 23.4
FC(F)(F)c1ccc(Nc2nc(-c3c(C(F)(F)F)nc4ccccn34)cs2)cc1 | 0.0398 | 2.22 | 0.0426 | 2.38 | 0.0406 | 5.64 | 0.0341 | 5.43 | 0.358 | 4.49 | 1.22 | 15.6 | 0.476 | 16.5 | 0.18 | 7.74 | 0.033 | 1.28 | 0.0358 | 1.49
Fc1ccc2c(c1)C1=NN(c3ccccc3)C(F)C1CO2 (configuration not stated) | 12.8 | > 50 | 10.7 | > 50 | 8.19 | 19.9 | 9.41 | > 50 | 8.08 | 19.1 | 7.72 | 17.4 | 18.1 | > 50 | 9.04 | 27.3 | 6.45 | 17.1 | 8.48 | 16.2
Nc1c(C(=O)c2cccc(-c3ccncc3)c2)cnn1-c1ccc(F)cc1F | > 25 | > 25 | 6.25 | > 25 | 2.19 | > 25 | 3.08 | > 25 | 4.36 | > 25 | 11.4 | > 25 | > 25 | > 25 | 18.3 | > 25 | 8.36 | > 25 | 1.68 | 8.49
O=C1c2ccccc2C(O)(O)C1(O)C1(O)C(=O)c2ccccc2C1(O)O (configuration not stated) | – | > 100 | – | 54.1 | – | 44.1 | – | 30.5 | – | > 100 | – | > 100 | – | > 100 | – | > 100 | – | 88.5 | – | 39.4
Cc1cc(O)c(C(C)C)cc1S(=O)(=O)O (tested in a mixture with another compound) | 0.586 | – | 0.343 | – | 0.38 | – | 0.325 | 1.57 | 0.85 | – | 0.507 | 6.64 | 0.727 | 7.54 | 0.335 | – | 0.281 | – | 0.394 | 1.44
C(#Cc1ccccc1C#Cc1cccs1)c1cccs1 | 24.7 | > 100 | 21.8 | > 100 | 24.6 | > 100 | 43.3 | > 100 | 39.2 | > 100 | 83.8 | > 100 | 25.6 | 83.2 | > 100 | > 100 | 30.6 | > 100 | 23.6 | > 100
CN[C@@H](C)C(=O)N[C@H](C(=O)N1CCC[C@H]1C(=O)Nc1snnc1-c1ccccc1)C1CCCCC1 | 62.8 | > 100 | 41.6 | > 100 | 58.3 | > 100 | 59.1 | > 100 | > 100 | > 100 | 5.58 | 99.6 | > 100 | > 100 | 13.8 | 21.3 | 34.4 | > 100 | 16.7 | 33.9
COc1ccc2nc3cccc([N+](=O)[O-])c3c(NCCCCCC(=O)O)c2c1 | 0.0799 | 0.548 | 0.0107 | 3.51 | 0.0251 | – | 0.0174 | 0.596 | 0.306 | 1.33 | 0.393 | 1.72 | 0.132 | 1.11 | 0.0877 | 2.22 | 0.447 | 4.55 | 0.0116 | 0.0694
CN(O)c1nc(N(C)O)nc(N2CCOCC2)n1 | 3.47 | 74 | 1.07 | > 100 | 0.637 | > 100 | 3.95 | > 100 | 7.64 | > 100 | 2.02 | > 100 | 41.2 | > 100 | 3.85 | > 100 | 2.57 | > 100 | 4.09 | > 100
CC(C)[C@H](N)C(=O)N1CCC[C@H]1B(O)O | > 100 | > 100 | > 100 | > 100 | > 100 | > 100 | > 100 | > 100 | > 100 | > 100 | > 100 | > 100 | > 100 | > 100 | > 100 | > 100 | > 100 | > 100 | > 100 | > 100
C#Cc1c(F)ccc2cc(O)cc(-c3ncc4c(N5CC6CCC(C5)N6)nc(OC[C@@]56CCCN5C[C@H](F)C6)nc4c3F)c12 | 15 | 31 | 2.62 | 14 | 34.7 | > 50.6 | 8.48 | 24 | 15.1 | 35.1 | 16.8 | 37.1 | 2.51 | 13.5 | 17.3 | 36.4 | 15.9 | 32 | 14.9 | 28.2
CCN(CC)CCCCNc1c2ccccc2[n+](C)c2c1[nH]c1ccccc12 | 1.29 | > 26 | 0.356 | – | 7.15 | > 70 | 0.256 | 3.63 | 0.202 | 1.18 | 0.345 | 2.57 | 1 | 11.5 | 0.786 | 19.8 | 0.542 | 4.31 | 0.283 | 0.976
CC(=O)OCC1OC(n2cnc(C(N)=S)c2N)C(OC(C)=O)C1OC(C)=O (configuration not stated) | – | > 100 | – | > 100 | – | > 100 | – | > 100 | – | > 100 | – | > 100 | – | > 100 | – | > 100 | – | > 100 | – | > 100
